Assay results: patent US4758557A, “Cephalosporin derivatives and bactericides containing the same” (Meiji Seika Kaisha, Ltd., priority 1985, dated 1988)
Values after ≈ are worked out from the molar mass of the structure shown.

Experiments:
Test in all cases: MIC in agar plate culture-dilution assay
Type in all cases: cell-based
[1] = test system: Bacillus subtilis ATCC 6633; settings: ATCC6633; Bacillus subtilis ATCC 6633; agar plate culture-dilution; read-out: MIC
Text: (§1) The compounds of the formula (I) and salts thereof of the present invention are new, and have high and broad antibacterial activity capable of inhibiting the growth of pathogenic microorganisms of a broad range including gram-positive and gram-negative bacteria. In order to show the usability of the compounds of the formula (I), the antibacterial activity of some typical compounds of the formula (I) was actually measured, and the results are given in the following Table-1.
(§2) MIC in agar plate culture-dilution assay (Y/ml)

[2] = test system: Citrobacter freundii GN-346; settings: GN346; Citrobacter freundii GN-346; agar plate culture-dilution; read-out: MIC
Text: as §1, §2

[3] = test system: Enterobacter cloacae GN-7471; settings: GN7471; Enterobacter cloacae GN-7471; agar plate culture-dilution; read-out: MIC
Text: as §1, §2

[4] = test system: Escherichia coli NIHJ JC-2; settings: NIHJJC2
Text: as §1, §2

[5] = test system: Klebsiella pneumoniae GN-69; settings: GN69; Klebsiella pneumoniae GN-69; agar plate culture-dilution; read-out: MIC
Text: as §1, §2

[6] = test system: Proteus rettgeri GN-624; settings: Providencia rettgeri, GN624; Proteus rettgeri GN-624; agar plate culture-dilution; read-out: MIC
Text: as §1, §2

[7] = test system: Proteus vulgaris GN-76; settings: GN76; Proteus vulgaris GN-76; agar plate culture-dilution; read-out: MIC
Text: as §1, §2

[8] = test system: Pseudomonas aeruginosa E-2; settings: E2; Pseudomonas aeruginosa E-2; agar plate culture-dilution; read-out: MIC
Text: as §1, §2

[9] = test system: Pseudomonas aeruginosa IAM-1007; settings: IAM1007; Pseudomonas aeruginosa IAM-1007; agar plate culture-dilution; read-out: MIC
Text: as §1, §2

[10] = test system: Pseudomonas aeruginosa M-0148; settings: M0148; Pseudomonas aeruginosa M-0148; agar plate culture-dilution; read-out: MIC
Text: as §1, §2

[11] = test system: Pseudomonas maltophilia M-0627; settings: Stenotrophomonas maltophilia, M0627; Pseudomonas maltophilia M-0627; agar plate culture-dilution; read-out: MIC
Text: as §1, §2

[12] = test system: Serratia marcescens No. 1; settings: Serratia marcescens No. 1; agar plate culture-dilution; read-out: MIC
Text: as §1, §2

[13] = test system: Staphylococcus aureus 209P JC-1; settings: Staphylococcus aureus 209P JC-1; agar plate culture-dilution; read-out: MIC
Text: as §1, §2

[14] = test system: Staphylococcus aureus Smith (1); settings: Staphylococcus aureus Smith (1); agar plate culture-dilution; read-out: MIC
Text: as §1, §2

Row | SMILES | MIC [1] [µg/mL] | MIC [2] [µg/mL] | MIC [3] [µg/mL] | MIC [4] [µg/mL] | MIC [5] [µg/mL] | MIC [6] [µg/mL] | MIC [7] [µg/mL] | MIC [8] [µg/mL] | MIC [9] [µg/mL] | MIC [10] [µg/mL] | MIC [11] [µg/mL] | MIC [12] [µg/mL] | MIC [13] [µg/mL] | MIC [14] [µg/mL]
1 | Nc1nc(C(NC(=O)c2cc(=O)c(O)cn2O)C(=O)N[C@@H]2C(=O)N3C(C(=O)O)=C(CSc4ccncc4)CS[C@H]23)cs1 (stereo partly drawn) [Example 16, (6R,7R)7-[(RS)2-(2-Aminothiazol-4-yl)-2-(1,5-dihydroxy-4-pyridone-2-carboxamido)acetamido]-3-(pyridine-4-yl)thiomethyl-ceph-3-em-4-carboxylic acid] | 6.25 (≈ 9.89 µM) | 0.78 (≈ 1.23 µM) | 1.56 (≈ 2.47 µM) | 0.1 (≈ 0.158 µM) | 0.2 (≈ 0.317 µM) | 1.56 (≈ 2.47 µM) | 0.39 (≈ 0.617 µM) | 0.1 (≈ 0.158 µM) | < 0.025 | 3.13 (≈ 4.96 µM) | 6.25 (≈ 9.89 µM) | 0.39 (≈ 0.617 µM) | 3.13 (≈ 4.96 µM) | 3.13 (≈ 4.96 µM)
2 | Nc1nc(C(NC(=O)c2cc(=O)c(O)cn2O)C(=O)N[C@@H]2C(=O)N3C(C(=O)O)=C(CSc4nc5ccccc5s4)CS[C@H]23)cs1 (stereo partly drawn) [Example 26, (6R,7R)7-[(RS)2-(2-Aminothiazol-4-yl)-2-(1,5-dihydroxy-4-pyridone-2-carboxamido)acetamido]-3-(benzothiazol-2-yl)thiomethyl-ceph-3-em-4-carboxylic acid] | 3.13 (≈ 4.55 µM) | 0.39 (≈ 0.567 µM) | 1.56 (≈ 2.27 µM) | 0.1 (≈ 0.145 µM) | 0.05 (≈ 0.0727 µM) | 3.13 (≈ 4.55 µM) | 0.2 (≈ 0.291 µM) | 0.05 (≈ 0.0727 µM) | 0.2 (≈ 0.291 µM) | 0.2 (≈ 0.291 µM) | 3.13 (≈ 4.55 µM) | 0.78 (≈ 1.13 µM) | 3.13 (≈ 4.55 µM) | 3.13 (≈ 4.55 µM)
